System: 633275-114-R-J1-PDC complex spheroids, viability
Assay: Anticancer human tumor 633275-114-R-J1-PDC patient-derived endometrial adenocarcinoma cell line growth inhibition [GQUAD]
Conditions: for IC50: curve of first compound; for viability, T/C: stronger effect = lower value
In short: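 Viability of tumor cells grown as complex spheroids with endothelial and stromal cells, exposed to drug combinations. Top concentration at or near clinical Cmax (else 10 microM), diluted in half-log increments.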

[1] = second compound 0.0316 µM, first compound 0.000999 µM
[2] = second compound 0.0316 µM, first compound 0.00316 µM
[3] = second compound 0.0316 µM, first compound 0.00999 µM
[4] = second compound 0.0316 µM, first compound 0.0316 µM
[5] = second compound 0.0316 µM, first compound 0.0999 µM
[6] = second compound 0.0316 µM, first compound 0.316 µM
[7] = second compound 0.1 µM, first compound 0.000999 µM
[8] = second compound 0.1 µM, first compound 0.00316 µM
[9] = second compound 0.1 µM, first compound 0.00999 µM
[10] = second compound 0.1 µM, first compound 0.0316 µM
[11] = second compound 0.1 µM, first compound 0.0999 µM
[12] = second compound 0.1 µM, first compound 0.316 µM
[13] = second compound 0.316 µM, first compound 0.000999 µM
[14] = second compound 0.316 µM, first compound 0.00316 µM
[15] = second compound 0.316 µM, first compound 0.00999 µM
[16] = second compound 0.316 µM, first compound 0.0316 µM
[17] = second compound 0.316 µM, first compound 0.0999 µM
[18] = second compound 0.316 µM, first compound 0.316 µM
[19] = second compound 1 µM, first compound 0.000999 µM
[20] = second compound 1 µM, first compound 0.00316 µM
[21] = second compound 1 µM, first compound 0.00999 µM
[22] = second compound 1 µM, first compound 0.0316 µM
[23] = second compound 1 µM, first compound 0.0999 µM
[24] = second compound 1 µM, first compound 0.316 µM
[25] = second compound 3.16 µM, first compound 0.000999 µM
[26] = second compound 3.16 µM, first compound 0.00316 µM
[27] = second compound 3.16 µM, first compound 0.00999 µM
[28] = second compound 3.16 µM, first compound 0.0316 µM
[29] = second compound 3.16 µM, first compound 0.0999 µM
[30] = second compound 3.16 µM, first compound 0.316 µM
[31] = second compound 10 µM, first compound 0.000999 µM
[32] = second compound 10 µM, first compound 0.00316 µM
[33] = second compound 10 µM, first compound 0.00999 µM
[34] = second compound 10 µM, first compound 0.0316 µM
[35] = second compound 10 µM, first compound 0.0999 µM
[36] = second compound 10 µM, first compound 0.316 µM
[37] = second compound 0.0316 µM, first compound 0.1 µM
[38] = second compound 0.0316 µM, first compound 1 µM
[39] = second compound 0.0316 µM, first compound 3.16 µM
[40] = second compound 0.0316 µM, first compound 10 µM
[41] = second compound 0.1 µM, first compound 0.1 µM
[42] = second compound 0.1 µM, first compound 1 µM
[43] = second compound 0.1 µM, first compound 3.16 µM
[44] = second compound 0.1 µM, first compound 10 µM
[45] = second compound 0.316 µM, first compound 0.1 µM
[46] = second compound 0.316 µM, first compound 1 µM
[47] = second compound 0.316 µM, first compound 3.16 µM
[48] = second compound 0.316 µM, first compound 10 µM
[49] = second compound 1 µM, first compound 0.1 µM
[50] = second compound 1 µM, first compound 1 µM
[51] = second compound 1 µM, first compound 3.16 µM
[52] = second compound 1 µM, first compound 10 µM
[53] = second compound 3.16 µM, first compound 0.1 µM
[54] = second compound 3.16 µM, first compound 1 µM
[55] = second compound 3.16 µM, first compound 3.16 µM
[56] = second compound 3.16 µM, first compound 10 µM
[57] = second compound 10 µM, first compound 0.1 µM
[58] = second compound 10 µM, first compound 1 µM
[59] = second compound 10 µM, first compound 3.16 µM
[60] = second compound 10 µM, first compound 10 µM
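Also: spheroids exposed to the agents for seven days.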
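For viability, T/C in this document: percent of DMSO vehicle control viability which is 100%.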

`Cc1[nH]c2ccccc2c1CCNCc1ccc(/C=C/C(=O)NO)cc1` + CN(C)c1ccc(Nc2c3ccc(NC(=O)CCN4CCCC4)cc3nc3cc(NC(=O)CCN4CCCC4)ccc23)cc1 was tested, and the IC50 (second compound 0.0316 µM) was 0.0826 µM, the IC50 (second compound 0.1 µM) was 0.0551 µM and the IC50 (second compound 0.316 µM) was 0.0552 µM. It also gave an IC50 (second compound 1 µM) of 0.048 µM, an IC50 (second compound 3.16 µM) of 0.0248 µM and an IC50 (second compound 10 µM) of under 0.000999 µM. The viability, T/C [1] was 97.4%, the viability, T/C [2] was 94.7% and the viability, T/C [3] was 84.9%. For the same compound, the viability, T/C [4] was 59.6%, the viability, T/C [5] was 51.3% and the viability, T/C [6] was 21.6%. For the same compound, the viability, T/C [7] was 94.2%, the viability, T/C [8] was 102% and the viability, T/C [9] was 80.5%. The viability, T/C [10] was 57.1%, the viability, T/C [11] was 43% and the viability, T/C [12] was 22%. For the same compound, the viability, T/C [13] was 96.8%, the viability, T/C [14] was 97.4% and the viability, T/C [15] was 70.5%. For the same compound, the viability, T/C [16] was 60.5%, the viability, T/C [17] was 41.2% and the viability, T/C [18] was 19.4%. The viability, T/C [19] was 88%, the viability, T/C [20] was 83.4% and the viability, T/C [21] was 67.3%. The viability, T/C [22] was 58.1%, the viability, T/C [23] was 38.4% and the viability, T/C [24] was 18.3%. It also gave a viability, T/C [25] of 82.4%, a viability, T/C [26] of 80.2% and a viability, T/C [27] of 61.2%. For the same compound, the viability, T/C [28] was 48.6%, the viability, T/C [29] was 26.3% and the viability, T/C [30] was 15.4%. For the same compound, the viability, T/C [31] was 34.1%, the viability, T/C [32] was 29.8% and the viability, T/C [33] was 21%. It also gave a viability, T/C [34] of 23.4%, a viability, T/C [35] of 13.6% and a viability, T/C [36] of 4.56%.
In the case of `COc1ncnc(C2CC2)c1-c1ncc2cnn(Cc3ccc(-c4nc(C(F)(F)F)cn4C(C)C)cc3)c2n1` + Cc1cnc(CNC(=O)c2c(=O)c3ccc(N4CCCN(C)CC4)nc3n3c2sc2ccccc23)cn1, the IC50 (second compound 0.0316 µM) is reported as over 10 µM, the IC50 (second compound 0.1 µM) is reported as under 0.0316 µM and the IC50 (second compound 0.316 µM) is reported as under 0.0316 µM. It also gave an IC50 (second compound 1 µM) of under 0.0316 µM, an IC50 (second compound 3.16 µM) of under 0.0316 µM and an IC50 (second compound 10 µM) of under 0.0316 µM. It also gave a viability, T/C [4] of 53.1%, a viability, T/C [37] of 54.6% and a viability, T/C [6] of 59.3%. The viability, T/C [38] was 56%, the viability, T/C [39] was 56.5% and the viability, T/C [40] was 58.2%. It also gave a viability, T/C [10] of 45.3%, a viability, T/C [41] of 45.5% and a viability, T/C [12] of 45.9%. It also gave a viability, T/C [42] of 48.5%, a viability, T/C [43] of 49% and a viability, T/C [44] of 50%. The viability, T/C [16] was 42.7%, the viability, T/C [45] was 43.9% and the viability, T/C [18] was 42.1%. The viability, T/C [46] was 38.8%, the viability, T/C [47] was 48.7% and the viability, T/C [48] was 42.5%. It also gave a viability, T/C [22] of 39.9%, a viability, T/C [49] of 39.7% and a viability, T/C [24] of 37.1%. It also gave a viability, T/C [50] of 36.9%, a viability, T/C [51] of 40.5% and a viability, T/C [52] of 38.7%. It also gave a viability, T/C [28] of 32%, a viability, T/C [53] of 32.1% and a viability, T/C [30] of 35.5%. For the same compound, the viability, T/C [54] was 33.4%, the viability, T/C [55] was 36.6% and the viability, T/C [56] was 34.1%. The viability, T/C [34] was 29.2%, the viability, T/C [57] was 28.8% and the viability, T/C [36] was 30.5%. The viability, T/C [58] was 27.5%, the viability, T/C [59] was 31.9% and the viability, T/C [60] was 29.3%.
`CCCS(=O)(=O)Nc1ccc(F)c(C(=O)c2c[nH]c3ncc(-c4ccc(Cl)cc4)cc23)c1F` + Cc1cnc(CNC(=O)c2c(=O)c3ccc(N4CCCN(C)CC4)nc3n3c2sc2ccccc23)cn1 was tested, and the IC50 (second compound 0.0316 µM) was 5.34 µM, the IC50 (second compound 0.1 µM) was 3.83 µM and the IC50 (second compound 0.316 µM) was 1.46 µM. For the same compound, the IC50 (second compound 1 µM) was under 0.0316 µM, the IC50 (second compound 3.16 µM) was under 0.0316 µM and the IC50 (second compound 10 µM) was under 0.0316 µM. For the same compound, the viability, T/C [4] was 68.7%, the viability, T/C [37] was 67.6% and the viability, T/C [6] was 72.9%. It also gave a viability, T/C [38] of 77%, a viability, T/C [39] of 69.4% and a viability, T/C [40] of 26.3%. The viability, T/C [10] was 55.9%, the viability, T/C [41] was 53.1% and the viability, T/C [12] was 56.1%. It also gave a viability, T/C [42] of 58.1%, a viability, T/C [43] of 56.4% and a viability, T/C [44] of 20.7%. The viability, T/C [16] was 49%, the viability, T/C [45] was 53.3% and the viability, T/C [18] was 50.8%. For the same compound, the viability, T/C [46] was 54%, the viability, T/C [47] was 46.8% and the viability, T/C [48] was 19.3%. It also gave a viability, T/C [22] of 40.7%, a viability, T/C [49] of 43.6% and a viability, T/C [24] of 47.7%. For the same compound, the viability, T/C [50] was 47.3%, the viability, T/C [51] was 43.3% and the viability, T/C [52] was 13.6%. For the same compound, the viability, T/C [28] was 37.2%, the viability, T/C [53] was 37.1% and the viability, T/C [30] was 36.7%. It also gave a viability, T/C [54] of 40.3%, a viability, T/C [55] of 40.6% and a viability, T/C [56] of 7.26%. The viability, T/C [34] was 30.6%, the viability, T/C [57] was 33.1% and the viability, T/C [36] was 34%. It also gave a viability, T/C [58] of 35.9%, a viability, T/C [59] of 27.8% and a viability, T/C [60] of 0.18%.
`Cn1ncnc1[C@H]1c2n[nH]c(=O)c3cc(F)cc(c23)N[C@@H]1c1ccc(F)cc1` + CN(C)c1ccc(Nc2c3ccc(NC(=O)CCN4CCCC4)cc3nc3cc(NC(=O)CCN4CCCC4)ccc23)cc1 showed an IC50 (second compound 0.0316 µM) of over 0.316 µM, an IC50 (second compound 0.1 µM) of over 0.316 µM and an IC50 (second compound 0.316 µM) of over 0.316 µM. For the same compound, the IC50 (second compound 1 µM) was over 0.316 µM, the IC50 (second compound 3.16 µM) was over 0.316 µM and the IC50 (second compound 10 µM) was under 0.000999 µM. The viability, T/C [1] was 103%, the viability, T/C [2] was 95.6% and the viability, T/C [3] was 82%. The viability, T/C [4] was 76.8%, the viability, T/C [5] was 65.4% and the viability, T/C [6] was 55.5%. It also gave a viability, T/C [7] of 97.6%, a viability, T/C [8] of 101% and a viability, T/C [9] of 98%. The viability, T/C [10] was 74.8%, the viability, T/C [11] was 70.6% and the viability, T/C [12] was 63.1%. The viability, T/C [13] was 95.2%, the viability, T/C [14] was 102% and the viability, T/C [15] was 86.5%. For the same compound, the viability, T/C [16] was 86.4%, the viability, T/C [17] was 71.2% and the viability, T/C [18] was 52.9%. It also gave a viability, T/C [19] of 102%, a viability, T/C [20] of 96.2% and a viability, T/C [21] of 91.9%. The viability, T/C [22] was 77.1%, the viability, T/C [23] was 63.6% and the viability, T/C [24] was 54.4%. For the same compound, the viability, T/C [25] was 84.9%, the viability, T/C [26] was 91.2% and the viability, T/C [27] was 79.7%. It also gave a viability, T/C [28] of 70%, a viability, T/C [29] of 59.3% and a viability, T/C [30] of 49.6%. The viability, T/C [31] was 31.5%, the viability, T/C [32] was 35.2% and the viability, T/C [33] was 35.4%. The viability, T/C [34] was 29.7%, the viability, T/C [35] was 26.3% and the viability, T/C [36] was 22%.
